Measurements as given in patent publication US9371336B2, “Compounds for treating spinal muscular atrophy” (PTC Therapeutics Inc., priority 2012, dated 2016).

Columns and labels:
[1] = tested on: SMN2 full length and Δ7 mRNA; experiment: Endogenous SMN2 mRNA RT-qPCR splicing assay in cultured cells (GM03813 SMA patient cells); format: cell-based, human; conditions: Type 1 SMA patient fibroblasts GM03813, increasing concentrations, 24 hr, RT-qPCR (FIG. 4)
Description: The reverse transcription-quantitative PCR-based (RT-qPCR) assay is used to quantify the levels of the SMN2 full length and Δ7 mRNA in primary cells and cell lines containing the SMN2 gene treated with a test compound.
GM03813 SMA patient cells (5,000 cells/well) are seeded in 200 μL, of cell culture medium (DMEM plus 10% FBS) in 96-well flat-bottom plates and the plate is immediately swirled to ensure proper dispersal of cells, forming an even monolayer of cells. Cells are allowed to attach for at least 4-6 hrs. Test compounds are serially diluted 3.16-fold in 100% DMSO to generate a 7-point concentration curve. A solution of test compound (1 μL, 200× in DMSO) is added to each test well and 1 μL, DMSO is added to each control well. The plate is incubated for 24 hrs in a cell culture incubator (37° C., 5% CO2, 100% relative humidity). The cells are then lysed in Cells-To-Ct lysis buffer and the lysate is stored at 80° C.
SMN2-specific spliced products and GAPDH mRNA are identified using the following primers and probes in Table 5. Primer SMN FL Forward B (SEQ ID NO. 7) hybridizes to a nucleotide sequence in exon 7 (nucleotide 32 to nucleotide 54) and exon 8 (nucleotide 1 to nucleotide 4), primer SMN Δ7 Forward B (SEQ ID NO. 8) hybridizes to a nucleotide sequence in exon 6 (nucleotide 87 to nucleotide 111) and exon 8 (nucleotide 1 to nucleotide 3), primer SMN Reverse B (SEQ ID NO. 9) hybridizes to a nucleotide sequence in exon 8 (nucleotide 39 to nucleotide 62), probe SMN Probe B (SEQ ID NO. 10) hybridizes to a nucleotide sequence in exon 8 (nucleotide 7 to nucleotide 36). These primers and probes hybridize to nucleotide sequences common to human SMN1 and SMN2 mRNA. Since the SMA patient cells used in Example 3 contain only the SMN2 gene, RT-qPCR can quantify only SMN2 full-length and Δ7 mRNA.
The SMN forward and reverse primers are used at final concentrations of 0.4 μM. The SMN probe is used at a final concentration of 0.15 μM. GAPDH primers are used at final concentrations of 0.1 μM and the probe at 0.075 μM. […]
The increase of SMN2 FL and decrease in SMN2 Δ7 mRNA relative to those in cells treated with vehicle control are determined from real-time PCR data using a modified ΔΔCt method (as described in Livak and Schmittgen, Methods, 2001, 25:402-8). The amplification efficiency (E) is calculated from the slope of the amplification curve for SMN2 FL, SMN2 Δ7, and GAPDH individually. The abundances of SMN2 FL, SMN2 Δ7, and GAPDH are then calculated as (1+E)^−Ct, where Ct is the threshold value for each amplicon. […]

Structure (SMILES) | SMN2 FL mRNA relative to vehicle [1] | SMN2 Δ7 mRNA relative to vehicle [1] | melting point
Cc1ccc2nc(-c3cc4ccc(N5CCN(C)CC5)nc4oc3=O)cn2c1 [Cpd 27, 3-(6-methylimidazo[1,2-a]pyridin-2-yl)-7-(4-methylpiperazin-1-yl)-2H-pyrano[2,3-b]pyridin-2-one] | progressively more SMN2 FL mRNA | less SMN2 Δ7 mRNA | 260 to 264 °C
CN1CCN(c2ccc3cc(-c4nc5c(Cl)cccc5s4)c(=O)oc3n2)CC1 [Cpd 5, 3-(4-chloro-1,3-benzothiazol-2-yl)-7-(4-methylpiperazin-1-yl)-2H-pyrano[2,3-b]pyridin-2-one] | progressively more SMN2 FL mRNA | less SMN2 Δ7 mRNA | 258 to 260 °C
